Test results reported in PMC4552634, “A New Set of Chemical Starting Points with Plasmodium falciparum Transmission-Blocking Potential for Antimalarial Drug Discovery” (PLoS ONE, 2015).
Where two headings read alike, the source gives them in different places.

Legend:
[1] = tested on: P. falciparum stage V gametocytes; assay: Gametocytocidal ATP bioluminescence assay (single point 5 μM and 1 μM, dose-response); assay type: cell-based, Plasmodium falciparum; conditions: for Ratio IC50 HepG2/IC50 P. falciparum: IC50 HepG2 divided by IC50 P. falciparum gametocytes
Method: Purified stage IV-V gametocytes were obtained as previously described [10]. Single point ATP bioluminescence assay and dose–response of positive hits was determined in accordance with the previously published protocol [10].

[2] = tested on: luciferase reaction (BacTiter-Glo); assay: Interference assay (inhibition of the BacTiter-Glo luciferase reaction); assay type: biochemical; set-up: concentration or dose not given beside the values; conditions: ATP interference assay
Method: To discard possible false-positive results, we performed an interference assay in parallel. […] […]. The ATP solution was made by dissolving ATP powder (ATP standard from the ATPlite 1 step assay kit, reference 6016731, Perkin Elmer) in culture medium. The positive control used was the Luciferase Inhibitor I Calbiochem (Merck, 119113) at 100 μM.

[3] = tested on: HepG2 cells; assay: Cytotoxicity in HepG2 cells (intracellular ATP, ATPlite, 48 h); assay type: cell-based, human; conditions: for IC50: HepG2 cells, IC50 per ratio column head, unit inferred; for Ratio IC50 HepG2/IC50 P. falciparum: IC50 HepG2 divided by IC50 P. falciparum gametocytes
[4] = tested on: P. falciparum asexual stages; conditions: cited from earlier work
[5] = Cytotoxicity in HepG2 cells (intracellular ATP, ATPlite, 48 h); assay type: cell-based, human; conditions: human, HepG2 cells
[6] = tested on: P. falciparum stage V gametocytes; assay: microbe, parasite or virus in culture; set-up: BacTiter-Glo ATP luminescence viability of purified stage V gametocytes in 384-well plates, per cent inhibition versus DMSO; conditions: Plasmodium falciparum, 48 h, read-out: % Inhibition
[7] = P. falciparum gametocytes, average, read-out: IC50 Pf Gametocytes average, IC50 (µM) average
[8] = asexual stages, TCAMS data, read-out: IC50 asexual
[9] = sexual stages (gametocytes), dose-response, read-out: IC50 sexual
[10] = Plasmodium falciparum, P. falciparum gametocytes, average, read-out: IC50 Pf Gametocytes average, IC50 (µM) average
[11] = Plasmodium falciparum, sexual stages (gametocytes), dose-response, read-out: IC50 sexual
[12] = P. falciparum asexual stages, TCAMS data, read-out: IC50 (µM) Pf asexual stages
[13] = IC50 per ratio column head, unit inferred, read-out: Cytotoxicity in HepG2

Row | SMILES | Ratio IC50 HepG2/IC50 P. falciparum [1] | IC50 [1, 7] [µM] | % Control luminiscence [2] [%] | IC50 [3] [nM] | IC50 [4, 8] [µM] | IC50 [1, 9] [µM] | IC50 [1, 10] [µM] | IC50 [1, 11] [µM] | IC50 [4, 12] [µM] | IC50 ([1]; Plasmodium falciparum, P. falciparum gametocytes, dose-response, average, read-out: IC50 Pf Gametocytes average IC50 (µM) average) [µM] | IC50 at 48 h [5, 13] [µM] | IC50 at 48 h ([5]; read-out: Cytotoxicity in HepG2 IC50 (µM) Malaria DPU) [µM] | Ratio IC50 HepG2/IC50 P. falciparum [3] | inhibition at 5 µM [6] [%] | IC50 ([4]; as previously determined for TCAMS, read-out: IC50 (μM) Pf Asexual stages) [µM] | IC50 ([1]; Plasmodium falciparum, gametocytes (GC), value as repeated in the Clusters sheet, read-out: IC50 GC) [µM]
1 | CCOCn1c(-c2ccccc2)cc2c3c(N)nc(N)nc3ccc21 [TCMDC-137979] | 4.35 | 1.3 | 94 | 5650 | 0.186 |  |  |  |  |  |  |  |  |  |  | 
2 | COc1cc(NC(=O)c2sc(-c3ccc(Cl)cc3)cc2NC(=O)c2ccncc2)ccc1OCCN1CCCC1 [TCMDC-135398] |  | 0.15 | 100 | 3230 | 0.031 |  |  |  |  |  |  |  |  |  |  | 
3 | CCc1c(CCNCCCCCCNCCc2ccc([N+](=O)[O-])cc2)ccc(OC)c1OC [TCMDC-132066] | 12 | 0.54 | 100 | 6670 | 0.727 | 0.537 |  |  |  |  |  |  |  |  |  | 
4 | COc1ccccc1-c1cccc(-c2cccc(NC(=O)c3ccc([N+](=O)[O-])o3)c2)n1 [TCMDC-124800] | 7 | 1.66 | 100 | 11500 | 0.603 | 1.66 |  |  |  |  |  |  |  |  |  | 
5 | CN1CCN(CCCN(Cc2cccc(-c3cccc(CNC4CCCC4)c3)c2)C(=O)CCC2CCCC2)CC1 [TCMDC-140555] | 9 | 0.81 | 100 | 7500 | 0.675 | 0.807 |  |  |  |  |  |  |  |  |  | 
6 | CS(=O)(=O)CCNCc1nc(-c2ccc3c(=O)[nH]cnc3c2)cs1 [TCMDC-138539] | 1.57 | 2.68 | 98 | 4200 | 1.01 |  |  |  |  |  |  |  |  |  |  | 
7 | COc1ccc(CNCc2ccc(F)cc2)cc1-c1ccc(S(=O)(=O)NCCN2CCCC2)cc1 [TCMDC-132294] | 5.36 | 1.21 | 98 | 6500 | 1.04 | 1.21 |  |  |  |  |  |  |  |  |  | 
8 | CCCOc1ccc(CCNCCCCNCCc2ccc(OCCC)c3ccccc23)c2ccccc12 [TCMDC-137952] | 31 | 0.08 | 100 | 2600 | 0.917 | 0.083 |  |  |  |  |  |  |  |  |  | 
9 | c1cc(C2=NC3CCCCC3N2)ccc1OCCCCCOc1ccc(C2=NC3CCCCC3N2)cc1 (stereo not drawn) [TCMDC-137802] | 13 | 0.28 | 100 | 3740 | 0.228 |  |  |  |  |  |  |  |  |  |  | 
10 | COc1ccc(-c2cnn3ccc(Nc4cc(OC)c(OC)c(OC)c4)nc23)cc1OC [TCMDC-134383] | 8 | 1.62 | 100 | 12900 | 0.65 | 1.62 |  |  |  |  |  |  |  |  |  | 
11 | Cc1ccc(-n2nc(-c3ccccc3)c3cc(C(=O)NCCN)sc32)cc1 [TCMDC-124776] | 7 | 1.11 | 99 | 7830 | 1.36 |  |  |  |  |  |  |  |  |  |  | 
12 | CNCCNc1nccc(N2CCc3ncnc(Nc4ccc(OCc5cccc(F)c5)c(Cl)c4)c3C2)n1 [TCMDC-135478] | 11 | 0.67 | 98 | 7160 | 0.197 | 0.665 |  |  |  |  |  |  |  |  |  | 
13 | COc1ccc(CNCCCCCCNCc2ccc(OC)c3ccccc23)c2ccccc12 [TCMDC-137631] | 6 | 0.51 | 91 | 3060 | 0.581 | 0.505 |  |  |  |  |  |  |  |  |  | 
14 | CN(CCCNCc1cccc2ccccc12)CCCNCc1cccc2ccccc12 [TCMDC-137905] | 25 | 0.23 | 100 | 5720 | 0.722 |  |  |  |  |  |  |  |  |  |  | 
15 | CC(Cc1ccc(C(=O)Nc2ccc(CC(C)NCCc3cccc(Cl)c3)cc2)cc1)NCCc1ccc(C(F)(F)F)cc1 (stereo not drawn) [TCMDC-139790] | 11 | 0.31 | 100 | 3300 | 0.57 | 0.307 |  |  |  |  |  |  |  |  |  | 
16 | O=C(Nc1ccc(Oc2ccccc2)cc1)N(CCN1CCCC1)Cc1ccc(-c2ccc(CN3CCNCC3)cc2)cc1 [TCMDC-139652] | 7 | 1.02 | 93 | 7080 | 0.892 | 1.01 |  |  |  |  |  |  |  |  |  | 

Row | SMILES | Ratio IC50 HepG2/IC50 P. falciparum [1] | IC50 [1, 7] [µM] | % Control luminiscence [2] [%] | IC50 [3] [nM] | IC50 [4, 8] [µM] | IC50 [1, 9] [µM] | IC50 [1, 10] [µM] | IC50 [1, 11] [µM] | IC50 [4, 12] [µM] | IC50 ([1]; Plasmodium falciparum, P. falciparum gametocytes, dose-response, average, read-out: IC50 Pf Gametocytes average IC50 (µM) average) [µM] | IC50 at 48 h [5, 13] [µM] | IC50 at 48 h ([5]; read-out: Cytotoxicity in HepG2 IC50 (µM) Malaria DPU) [µM] | Ratio IC50 HepG2/IC50 P. falciparum [3] | inhibition at 5 µM [6] [%] | IC50 ([4]; as previously determined for TCAMS, read-out: IC50 (μM) Pf Asexual stages) [µM] | IC50 ([1]; Plasmodium falciparum, gametocytes (GC), value as repeated in the Clusters sheet, read-out: IC50 GC) [µM]
17 | COc1ccc(CNCCc2cccs2)cc1-c1cccc(S(=O)(=O)NCCN2CCCC2)c1 [TCMDC-132479] | 7 | 1.68 | 94 | 11400 | 0.877 | 1.68 |  |  |  |  |  |  |  |  |  | 
18 | Cc1cc(F)ccc1-c1nc(NCC(O)CNCCc2ccccc2)nc2c1ccc(=O)n2-c1c(F)cccc1F (stereo not drawn) [TCMDC-141784] | 37 | 0.23 | 100 | 8470 | 0.539 |  |  |  |  |  |  |  |  |  |  | 
19 | C[C@H]1CN(Cc2cccc(-c3cc(CNC(=O)c4cccc(CC5CCN(C)CC5)c4)ccc3F)c2)CCN1C [TCMDC-136349] | 8 | 0.85 | 100 | 6970 | 1.09 |  |  |  |  |  |  |  |  |  |  | 
20 | CN(C)Cc1ccc(-c2cccc(Nc3nccc(NCC(O)c4ccccc4)n3)c2)cc1 (stereo not drawn) [TCMDC-136467] | 6.52 | 0.9 | 100 | 5870 | 0.373 |  |  |  |  |  |  |  |  |  |  | 
21 | Nc1ncc(-c2ccc3nccc(-c4ccncc4)c3c2)cc1S(=O)(=O)N1CCCCC1 [TCMDC-134265] | >12 | 2.07 | 100 | > 25000 | 0.581 | 2.07 |  |  |  |  |  |  |  |  |  | 
22 | CN(C)CCNCc1cccc(-c2ccc3c(Nc4ccc(Oc5ccccn5)cc4)ccnc3c2)c1 [TCMDC-138493] | 20 | 0.22 | 100 | 4490 | 0.233 |  |  |  |  |  |  |  |  |  |  | 
23 | CC(C)(C)OC(=O)NCc1ccc(Nc2nnc(-c3ccc(OCC(=O)NCc4ccc(C(C)(C)C)cc4)c([N+](=O)[O-])c3)o2)cc1 [TCMDC-134991] | 4.5 | 0.7 | 100 | 3150 | 0.8 |  |  |  |  |  |  |  |  |  |  | 
24 | COc1ccc(-c2cc(-c3ccc(S(C)(=O)=O)cc3)cnc2N)cn1 [TCMDC-133351] |  |  | 100 |  | 0.187 |  | 1.18 | 1.18 | 0.19 |  |  |  |  |  |  | 
25 | Nc1cc(C=Cc2ccc([N+](=O)[O-])o2)nc2ccccc12 [TCMDC-142295] | 58 |  |  |  | 0.367 |  | 0.2 |  | 0.37 | 0.21 | 11.7 | 12 | 59 | 116 |  | 
26 | CCN(CC)C(=NCCCCCCN=C(NC(=N)c1ccc(Cl)cc1)N(CC)CC)NC(=N)c1ccc(Cl)cc1 [TCMDC-131806] | 52 |  |  |  | 0.381 |  | 0.84 |  |  |  | 43.6 |  | 52 |  |  | 
27 | CCN(CC)Cc1cc(Nc2c3ccc(Cl)cc3nc3cccc(OC)c23)ccc1O [TCMDC-139222] | >25 |  |  |  | 0.033 |  | 1 | 0.995 | 0.0334 |  | > 25 |  | >25 |  | 0.03 | 
28 | Cc1ccc(Nc2nc(-c3ccccn3)cs2)nc1 [TCMDC-125854] |  |  | 100 |  | 0.752 | 0.159 | 0.16 |  |  |  |  |  |  |  |  | 
29 | CS(=O)(=O)c1cccc(-c2cnc3[nH]cc(-c4cccc(CCN)c4)c3c2)c1 [TCMDC-136307] | >53 |  |  |  | 1.56 |  | 0.47 |  | 1.56 |  | > 25 |  | >53 |  |  | 
30 | CC(C)CNCc1cccc(-c2cccc(CNCCCN3CCN(C)CC3)c2)c1 [TCMDC-140483] | >16 |  |  |  | 1.18 | 1.56 | 1.56 |  |  |  | > 25 |  | >16 |  |  | 
31 | CC(=NNC(=S)NCCc1ccccn1)c1ccccn1 [TCMDC-137895] | >17 |  |  |  | 0.319 |  | 1.49 | 1.5 | 0.32 |  | > 25 |  | >17 |  |  | 1.5
32 | CN1CCN(CCCNCc2cccc(-c3ccc(CNCCc4ccccc4)cc3)c2)CC1 [TCMDC-140643] | 44 |  |  |  | 0.781 | 0.413 | 0.41 |  |  |  | 18.2 |  | 44 |  |  | 
